For data set [1], the system named is HK-2 cells. The data set can be described thus: Cell viability (CCK-8) in HK-2 cells under cytotoxicity induction by tacrolimus. The note with it: for survival rate: Nil = 100%. The data set is classed as cell-based, human. The protocol:
The human kidney-2 cell line used in this experiment was purchased from ATCC (Manassas, Va., USA) and used. These cells were cultured in Dulbecco's modified Eagle's medium (DMEM; Wisent) containing 10% fetal bovine serum (FBS; Wisent, St. Bruno, Que, Canada), 100 U/mL penicillin, and […] streptomycin (Wisent) in 5% CO2, 37° C. incubator. After 80% seeding of HK-2 cells, 24 hours later, tacrolimus was treated at a concentration of 60 to 70 μg/ml and SD911 was treated at a concentration of 1 to 20 μM and reacted for 3 to 12 hours. In the case of cells isolated as a single cell from mouse spleen tissue, after seeding 2×10^5/cell/200 μl in a 96-well plate in triplicate, each SD911 compound was treated with 1 to 20 μM and reacted for 3 days. Thereafter, the cell counting kit-8 (CCK-8, Dojindo molecular, Rockville, Mass., USA) reagent was treated for 2 hours, and then measured and analyzed at absorbance of 450 nm. The cytoprotective effect of an SD911 compound was investigated under HK-2 cytotoxicity induction by tacrolimus (Tac).

In data set [2] the test system is mouse splenocytes. The data set can be described thus: Toxicity test (CCK-8) on mouse splenocytes. Type of data set: cell-based. The note with it: SD911 1, 5, 20 μM, 3 days. The protocol:
After 80% seeding of HK-2 cells, 24 hours later, tacrolimus was treated at a concentration of 60 to 70 μg/ml and SD911 was treated at a concentration of 1 to 20 μM and reacted for 3 to 12 hours. In the case of cells isolated as a single cell from mouse spleen tissue, after seeding 2×10^5/cell/200 μl in a 96-well plate in triplicate, each SD911 compound was treated with 1 to 20 μM and reacted for 3 days. Thereafter, the cell counting kit-8 (CCK-8, Dojindo molecular, Rockville, Mass., USA) reagent was treated for 2 hours, and then measured and analyzed at absorbance of 450 nm.

Data set [3] concerns HK-2 cells. The data set can be described thus: Reactive oxygen species (ROS) measurement by DCF-DA flow cytometry in HK-2 cells. The data set is classed as cell-based, human. The protocol:
After 80% seeding of HK-2 cells, 24 hours later, tacrolimus was treated at a concentration of 60 to 70 μg/ml and SD911 was treated at a concentration of 1 to 20 μM and reacted for 3 to 12 hours, and then 10 μM of DCF-DA (Molecular probes, Carlebad, Calif., USA) was reacted at 37° C. for 1 hour. Then, cells were harvested and analyzed with 0.05% Trypsin and 0.53 mM EDTA. For analysis, aggregated or broken cells were removed using FSC (forward side scatter) and SSC (side scatter) scatter plots (dot plot) using a FACS Calibur (BD bioscience, San Jose, Calif., USA), and the fluorescence fraction was analyzed in the FL-1H channel (Excitation 488 nm, Emission 513 to 535 nm). Based on the cell viability identification results of Example 1, the ROS production inhibitory effect on 1, 5, and 10 μM of SD911 was investigated. […] In […] cells, the effect of SD911 on ROS production inhibitory ability and apoptosis reduction was identified. Based on the cell viability test results of Example 2 (FIG. 2), inhibitory effects of SD911 on ROS production were investigated at 1, 5, and 10 μM of SD911.
A general note: Flow cytometry measures light scatter and fluorescence of single cells or particles in a stream.

The subject of data set [4] is IL-17. In words: IL-17 ELISA of cell culture medium under anti-CD3 immune activity. The data set is classed as cell-based, mouse. The settings on record: anti-CD3 stimulation, 3 days, compared to group not treated with SD911. How it is done: (§1) Cell culture for ELISA was coated with 250 ul of mouse anti-CD3 antibody diluted in ccPBS with 0.5 μg/ml in a 24-well plate as many as the number of conditions. After incubation for 2 hours, the supernatant was removed and the cells were seeded at 1×10^6/cells/1 ml and then treated with each drug. After culturing for 3 days, only the cell culture medium was removed and used as IL-10 and IL-17 ELISA samples.
Background: ELISA stands for enzyme-linked immunosorbent assay.

Data set [5] deals with IL-10. The data set can be described thus: IL-10 ELISA of cell culture medium under anti-CD3 immune activity. The data set is classed as cell-based, mouse. The note with it: anti-CD3 stimulation, 3 days, compared to group not treated with SD911. How it is done:
as §1

Data set [6] concerns the target T1, S1P (Sphingosine 1-phosphate) lyase (Mus musculus, UniProt Q8R0X7).
T1 construct: After homogenizing the liver tissue of an experimental animal in a lysis buffer; from tissue; host or cells: liver tissue homogenate of an experimental animal
T1 sequence (Q8R0X7 1-568): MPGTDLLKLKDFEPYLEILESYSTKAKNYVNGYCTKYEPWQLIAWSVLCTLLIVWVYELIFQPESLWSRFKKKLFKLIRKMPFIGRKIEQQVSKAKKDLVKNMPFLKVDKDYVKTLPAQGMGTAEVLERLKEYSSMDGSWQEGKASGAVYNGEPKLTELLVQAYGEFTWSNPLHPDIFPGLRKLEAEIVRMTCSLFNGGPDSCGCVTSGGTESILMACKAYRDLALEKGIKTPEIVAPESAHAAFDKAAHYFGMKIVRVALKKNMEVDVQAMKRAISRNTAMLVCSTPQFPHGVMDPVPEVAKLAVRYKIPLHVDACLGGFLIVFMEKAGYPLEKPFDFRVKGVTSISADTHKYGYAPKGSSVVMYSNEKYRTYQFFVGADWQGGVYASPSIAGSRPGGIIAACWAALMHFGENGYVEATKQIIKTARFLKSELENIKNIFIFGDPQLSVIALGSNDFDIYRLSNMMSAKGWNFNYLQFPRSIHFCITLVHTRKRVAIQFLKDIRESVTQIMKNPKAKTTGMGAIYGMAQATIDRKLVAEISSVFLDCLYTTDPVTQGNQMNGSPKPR
In words: S1P lyase (SPL) activity in liver lysate, HPLC. Type of data set: biochemical. The note with it: 5 uM inhibitor, 37° C. for 1 hour. How it is done: After homogenizing the liver tissue of an experimental animal in a lysis buffer, protein quantification was performed to secure the concentration, and a mixed solution was prepared under the conditions shown in Table 1 below and reacted at 37° C. for 1 hour.

For data set [7], the system named is HK-1 cells. The data set can be described thus: Tac-induced apoptosis analysis with PI and Annexin-V. The note with it: Tac combined with SD911 (10 μM), compared to Tac alone. Type of data set: cell-based, human. The protocol: In HK-1 cells, the effect of SD911 on ROS production inhibitory ability and apoptosis reduction was identified. Based on the cell viability test results of Example 2 (FIG. 2), inhibitory effects of SD911 on ROS production were investigated at 1, 5, and 10 μM of SD911.

The test system of data set [8] is immunodeficient mice (NSG) injected with transplantation rejection patient PBMCs. The data set can be described thus: Transplantation rejection patient imitation avatar (humanized NSG mouse) model, immunosuppressant effect. Type of data set: in vivo. The settings on record: group injected with transplantation rejection patient PBMCs. The text has this: In order to produce the transplantation rejection avatar animal model of an embodiment of the present invention, PBMCs (peripheral blood mononuclear cells) derived from normal or transplantation rejection patients were intravascularly injected into 8 to 10 week old immunodeficient mice (NSG) at 5×10^6/mice. After 3 weeks, the engraftment of normal or transplantation rejection patients (kidney transplantation rejection patients) cells in the blood was identified in blood cells. Thereafter, the mice were sacrificed 4 weeks after cell transplantation to identify the infiltration of human cells and histological changes in the tissue (FIG. 8).
In order to identify that the transplantation rejection patient imitation avatar model in Example 8 above was properly constructed, engraftment of human cells was analyzed through flow cytometry. Specifically, blood was obtained from the transplantation rejection humanized mice of Example 1 (normal PBMC injection group, HC; transplantation rejection patient PBMC injection group, Patient), and then cells that were positive in reaction with human antibodies were analyzed. In addition, blood […] (SCR) concentration was measured as an index for measuring kidney damage in PBMC-injected mice of normal subjects and transplantation rejection patients. SCR was measured by the quantitative enzymatic colorimetric method (Stanbio laboratory, 0430-120) by isolating serum in animal blood.
Specifically, the transplantation rejection humanized mouse model established in Example 8 above was classified as 1) a normal PBMC injection group, 2) a normal PBMC injection group treated with an immunosuppressant, 3) a transplantation rejection patient PBMC injection group, and 4) a transplantation rejection patient PBMC injection group treated with an immunosuppressant. SD911 was used as the immunosuppressant. Specifically, the animal model of Example 8 above was treated with SD911 at 3 weeks after engraftment of PBMCs. and the same amount of physiological saline was treated as a control group. […]

In the case of `C[C@@H]1CN(c2nnc(Oc3ccccc3)c3ccccc23)CCN1c1ccc(C#N)cn1` [SD911, 6-((R)-2-methyl-4-(1-phenoxyphthalazin-4-yl)piperazin-1-yl)pyridine-3-carbonitrile], the survival rate in data set [1] (1 μM SD911 in combination with tacrolimus) worked out at 81.7%; in data set [1] (5 μM SD911 in combination with tacrolimus) it was 81.8%; in data set [1] (10 μM SD911 in combination with tacrolimus), 72.0%; in data set [1] (20 μM SD911 in combination with tacrolimus), 37.4%. In data set [1] (SD911 alone at 1, 5, 10 and 20 μM), the “own drug toxicity (cell viability compared to Nil)” value was “did not have its own drug toxicity”. For the same compound, the “toxicity on immune cells (cell viability vs Nil group)” value in data set [2] was “no significant difference compared to the Nil group”. Further, the “ROS (DCF-DA fluorescence fraction)” value in data set [3] (1 μM SD911 combined with tacrolimus) came out at 36.5%; in data set [3] (5 μM SD911 combined with tacrolimus) it was 13.7%; in data set [3] (10 μM SD911 combined with tacrolimus) it was 9.3%. Further, the “fluorescence fraction of DCF-DA (ROS)” value in data set [3] (SD911 alone at 1, 5 and 10 μM, compared to Nil) was “almost no difference from that of Nil”. Besides, the “IL-17 level (ELISA)” value in data set [4] is “decreased IL-17”. In data set [5], the “IL-10 level (ELISA)” value was “increased IL-10 in a concentration-dependent manner”. The “reduction of S1P lyase activity compared to the control” value in data set [6] is recorded as “about 30%”. In data set [7], the “ratio of necrotic cells, apoptotic cells, and early apoptotic cells & necrotic cells” value was “significantly alleviated compared to Tac alone”. The “damage to kidney tissue (GN score, IN score, Vasculitis)” value in data set [8] (SD911 at 3 weeks after engraftment, sacrifice 1 week later) was “the damage to the kidney tissue was reduced”. For the same compound, in data set [8] (immunohistochemical staining), the “infiltration of IL-17 positive cells in kidney tissue” value is given as “significantly reduced”. For the same compound, the “infiltration of human CD4-positive cells in kidney tissue” value in data set [8] (immunohistochemical staining) is recorded as “significantly reduced”.

In data set [1] (tacrolimus (Tac) alone), `C=CC[C@@H]1/C=C(\C)C[C@H](C)C[C@H](OC)[C@H]2O[C@@](O)(C(=O)C(=O)N3CCCC[C@H]3C(=O)O[C@H](/C(C)=C/[C@@H]3CC[C@@H](O)[C@H](OC)C3)[C@H](C)[C@@H](O)CC1=O)[C@H](C)C[C@@H]2OC` [tacrolimus, reference compound] came in with a survival rate of 56.7%. Besides, in data set [3] (tacrolimus (Tac) alone, induction of HK-2 cytotoxicity), the “ROS (DCF-DA fluorescence fraction)” value worked out at 31.6%.

Source of the values: patent US20230095498A1, “NOVEL COMPOUND AND USE THEREOF” (THE CATHOLIC UNIVERSITY OF KOREA INDUSTRY-ACADEMIC …, priority 2020, published 2023).
